In this experiment the target is ROCK2 (human) (UniProt O75116). Description: Inhibition of ROCK2 Kinase Activity.
Chain of ROCK2 (human) (O75116 whole entry, looked up): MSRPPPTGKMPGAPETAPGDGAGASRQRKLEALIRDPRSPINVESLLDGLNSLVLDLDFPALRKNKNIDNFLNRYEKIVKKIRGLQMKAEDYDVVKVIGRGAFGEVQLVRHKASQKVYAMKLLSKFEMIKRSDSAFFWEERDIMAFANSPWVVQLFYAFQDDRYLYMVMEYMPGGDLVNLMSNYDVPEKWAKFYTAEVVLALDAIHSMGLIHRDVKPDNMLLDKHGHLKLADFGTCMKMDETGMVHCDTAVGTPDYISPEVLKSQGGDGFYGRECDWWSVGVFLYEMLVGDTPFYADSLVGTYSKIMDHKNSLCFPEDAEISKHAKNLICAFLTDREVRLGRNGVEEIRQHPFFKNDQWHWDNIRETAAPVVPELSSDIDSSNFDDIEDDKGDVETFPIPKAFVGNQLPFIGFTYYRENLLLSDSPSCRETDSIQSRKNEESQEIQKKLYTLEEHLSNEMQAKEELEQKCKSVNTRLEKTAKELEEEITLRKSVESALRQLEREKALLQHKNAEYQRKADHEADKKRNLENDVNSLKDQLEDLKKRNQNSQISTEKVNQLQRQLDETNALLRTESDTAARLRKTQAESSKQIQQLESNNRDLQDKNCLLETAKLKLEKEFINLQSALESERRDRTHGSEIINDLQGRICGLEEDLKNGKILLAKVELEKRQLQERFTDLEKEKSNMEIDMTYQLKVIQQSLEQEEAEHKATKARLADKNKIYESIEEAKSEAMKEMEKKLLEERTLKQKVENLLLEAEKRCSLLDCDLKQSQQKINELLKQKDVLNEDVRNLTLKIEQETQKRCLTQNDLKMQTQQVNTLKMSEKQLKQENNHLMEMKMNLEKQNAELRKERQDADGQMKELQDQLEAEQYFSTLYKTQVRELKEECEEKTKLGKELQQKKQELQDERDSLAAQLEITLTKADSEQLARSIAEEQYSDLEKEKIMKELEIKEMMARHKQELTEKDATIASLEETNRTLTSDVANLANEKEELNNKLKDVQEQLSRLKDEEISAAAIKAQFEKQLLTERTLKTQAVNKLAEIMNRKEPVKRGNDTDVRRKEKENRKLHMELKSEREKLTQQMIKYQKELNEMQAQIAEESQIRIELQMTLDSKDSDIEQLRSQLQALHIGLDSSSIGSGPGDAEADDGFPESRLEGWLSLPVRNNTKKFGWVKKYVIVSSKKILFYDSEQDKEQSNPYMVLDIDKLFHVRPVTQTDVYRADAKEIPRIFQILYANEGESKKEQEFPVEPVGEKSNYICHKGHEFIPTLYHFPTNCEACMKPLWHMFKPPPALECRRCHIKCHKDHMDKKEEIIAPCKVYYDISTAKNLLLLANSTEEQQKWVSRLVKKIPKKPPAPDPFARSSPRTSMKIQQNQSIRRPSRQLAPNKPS
The compound `NC(CC(=O)NC1CCCCC1)c1ccc(C(=O)Nc2ccncc2)cc1` (stereo not given) had an IC50 of 50 to 500 nM.
In the case of `COc1ccc(C(NC(=O)CC(N)c2ccc(C(=O)Nc3ccncc3)cc2)c2ccc(OC)cc2)cc1` (stereo not given) it was 50 to 500 nM.
The result for `CC(C)(C(=O)N1CCCC1C(N)c1ccc(C(=O)Nc2ccncc2)cc1)c1ccsc1` (stereo not given) reads 500 to 5000 nM; that for `CCOc1ccccc1CNC(=O)CC(N)c1ccc(C(=O)Nc2ccncc2)cc1` (stereo not given), 50 to 500 nM; that for `N#CCC(=O)NCC(N)c1ccc(C(=O)Nc2ccncc2)cc1` (stereo not given), 50 to 500 nM.
In the case of `NC(CC(=O)NCc1cccc(Br)c1)c1ccc(C(=O)Nc2ccncc2)cc1` (stereo not given) it was 50 to 500 nM; in that of `Cc1cccc(CC(=O)N(C)CC(N)c2ccc(C(=O)Nc3ccncc3)cc2)c1` (stereo not given), 500 to 5000 nM; in that of `Cc1ccccc1NC(=S)NCC(N)c1ccc(C(=O)Nc2ccncc2)cc1` (stereo not given), 500 to 5000 nM.
Take `NC(c1ccc(C(=O)Nc2ccncc2)cc1)C1CCCN1C(=O)Cc1cccc2ccccc12` (stereo not given): the IC50 was in the range of 500 to 5000 nM.
In the case of `CN(CC(N)c1ccc(C(=O)Nc2ccncc2)cc1)C(=O)C1(c2ccc(F)c(Cl)c2)CC1` (stereo not given) it was 500 to 5000 nM.
The result for `NC(c1ccc(C(=O)Nc2ccncc2)cc1)C1CCCN1C(=O)Cc1cccs1` (stereo not given) reads 50 to 500 nM; that for `NC(CNC(=O)Cc1ccc(F)c(F)c1)c1ccc(C(=O)Nc2ccncc2)cc1` (stereo not given), 50 to 500 nM.
In the case of `NC(CC(=O)NCc1ccc(-c2cccs2)cc1)c1ccc(C(=O)Nc2ccncc2)cc1` (stereo not given) it was 50 to 500 nM; in that of `NC(c1ccc(C(=O)Nc2ccncc2)cc1)C1CCCN1C(=O)Cc1csc2ccccc12` (stereo not given), 50 to 500 nM; in that of `CC(=NOCC(=O)NCC(N)c1ccc(C(=O)Nc2ccncc2)cc1)c1ccccc1` (stereo not given), 50 to 500 nM.
The compound `NC(CNC(=O)c1ccccc1-c1ccccc1)c1ccc(C(=O)Nc2ccncc2)cc1` (stereo not given) gave an IC50 of 500 to 5000 nM.
With `CCSCC(=O)NCC(N)c1ccc(C(=O)Nc2ccncc2)cc1` (stereo not given), the IC50 was 50 to 500 nM.
In the case of `CC(C)(C(=O)NCC(N)c1ccc(C(=O)Nc2ccncc2)cc1)c1ccc(F)cc1F` (stereo not given) it was 50 to 500 nM.
In the case of `NC(c1ccc(C(=O)Nc2ccncc2)cc1)C1CCCN1C(=O)Cc1ccc(O)c([N+](=O)[O-])c1` (stereo not given), the IC50 was in the range of 500 to 5000 nM.
In turn, `Cc1cccc(CC(=O)N2CCCC2C(N)c2ccc(C(=O)Nc3ccncc3)cc2)c1` (stereo not given) yielded an IC50 of 500 to 5000 nM.
The result for `NC(c1ccc(C(=O)Nc2ccncc2)cc1)C1CCCN1C(=O)C1CCSc2ccccc21` (stereo not given) reads 500 to 5000 nM.
The result for `COc1ccc(CNC(=O)CC(N)c2ccc(C(=O)Nc3ccncc3)cc2)cc1` (stereo not given) reads 50 to 500 nM; that for `Cc1ccc2[nH]cc(CCNC(=O)CC(N)c3ccc(C(=O)Nc4ccncc4)cc3)c2c1` (stereo not given), 50 to 500 nM; that for `COc1ccc(C2(C(=O)N3CCCC3C(N)c3ccc(C(=O)Nc4ccncc4)cc3)CCCC2)cc1` (stereo not given), 500 to 5000 nM.
The result for `CC(=O)NCC(N)c1ccc(C(=O)Nc2ccncc2)cc1` (stereo not given) reads 500 to 5000 nM.
On to `NC(CC(=O)NCc1ccccc1F)c1ccc(C(=O)Nc2ccncc2)cc1` (stereo not given), for which the IC50 lay in the range of 50 to 500 nM.
The result for `CCN(CC)c1ccc(C(=O)NCC(N)c2ccc(C(=O)Nc3ccncc3)cc2)cc1` (stereo not given) reads 500 to 5000 nM; that for `NC(CNC(=O)C1Cc2ccccc21)c1ccc(C(=O)Nc2ccncc2)cc1` (stereo not given), 50 to 500 nM.
The result for `Cc1ccc(CCNC(=O)CC(N)c2ccc(C(=O)Nc3ccncc3)cc2)cc1` (stereo not given) reads 50 to 500 nM; that for `NC(CNC(=O)c1ccc2cc[nH]c2c1)c1ccc(C(=O)Nc2ccncc2)cc1` (stereo not given), 500 to 5000 nM; that for `NC(CNC(=O)c1cc2cc(F)ccc2[nH]1)c1ccc(C(=O)Nc2ccncc2)cc1` (stereo not given), 500 to 5000 nM.
In the case of `COCC(=O)NCC(N)c1ccc(C(=O)Nc2ccncc2)cc1` (stereo not given) it was 500 to 5000 nM; in that of `NC(CNC(=O)Cc1cccc(Cl)c1)c1ccc(C(=O)Nc2ccncc2)cc1` (stereo not given), 50 to 500 nM; in that of `N#Cc1cccc(C(=O)NCC(N)c2ccc(C(=O)Nc3ccncc3)cc2)c1` (stereo not given), 500 to 5000 nM.
Consider `NC(CNC(=O)CC(c1ccccc1)c1ccccc1)c1ccc(C(=O)Nc2ccncc2)cc1` (stereo not given), for which the IC50 was in the range of 50 to 500 nM.
In the case of `CN(CC(N)c1ccc(C(=O)Nc2ccncc2)cc1)C(=O)C1Cc2ccccc21` (stereo not given) it was 50 to 500 nM; in that of `CC(C)(C)ON=Cc1ccc(C(=O)NCC(N)c2ccc(C(=O)Nc3ccncc3)cc2)cc1` (stereo not given), 500 to 5000 nM; in that of `CC[C@H](NC(=O)CC(N)c1ccc(C(=O)Nc2ccncc2)cc1)c1ccc(C)cc1` (stereo not given in full), 50 to 500 nM.
In the case of `NC(CC(=O)NCCc1ccc(F)cc1)c1ccc(C(=O)Nc2ccncc2)cc1` (stereo not given) it was 50 to 500 nM.
The result for `CN(CC(N)c1ccc(C(=O)Nc2ccncc2)cc1)C(=O)Cc1ccc(F)c(F)c1` (stereo not given) reads 500 to 5000 nM; that for `NC(CNC(=O)c1ccccn1)c1ccc(C(=O)Nc2ccncc2)cc1` (stereo not given), 500 to 5000 nM.
Take `COc1ccc(CC(=O)N(C)CC(N)c2ccc(C(=O)Nc3ccncc3)cc2)cc1` (stereo not given): the concentration for half-maximal inhibition (IC50) lay in the range of 50 to 500 nM.
For the compound `COc1ccc(C2(C(=O)N3CCCC3C(N)c3ccc(C(=O)Nc4ccncc4)cc3)CC2)cc1` (stereo not given), the IC50 is 500 to 5000 nM.
The result for `NC(CC(=O)NCCc1c[nH]c2ccccc12)c1ccc(C(=O)Nc2ccncc2)cc1` (stereo not given) reads 50 to 500 nM.
In the case of `NC(c1ccc(C(=O)Nc2ccncc2)cc1)C1CCCN1C(=O)C1(c2ccc(Cl)cc2Cl)CC1` (stereo not given) it was 500 to 5000 nM.
